According to ChEMBL document CHEMBL1201862, “PubChem BioAssay data set” (2004):
Active and inactive are the calls of the source.

What was measured:
Hexokinase-1 = Hexokinase-1 (Homo sapiens, UniProt P19367); experiment: SAR analysis of small molecule inhibitors of hexokinase domain containing I (HKDC1) in the hexokinase 1 selectivity assay. [Related pubchem assays (depositor defined):AID493160, AID493190]; type: functional
Hexokinase HKDC1 = biological target: T1, Hexokinase HKDC1 (Homo sapiens, UniProt Q2TB90); experiment: SAR analysis of small molecule inhibitors of hexokinase domain containing I (HKDC1). [Related pubchem assays (depositor defined):AID493160, AID493190]; type: functional
T1 sequence (Q2TB90 whole entry): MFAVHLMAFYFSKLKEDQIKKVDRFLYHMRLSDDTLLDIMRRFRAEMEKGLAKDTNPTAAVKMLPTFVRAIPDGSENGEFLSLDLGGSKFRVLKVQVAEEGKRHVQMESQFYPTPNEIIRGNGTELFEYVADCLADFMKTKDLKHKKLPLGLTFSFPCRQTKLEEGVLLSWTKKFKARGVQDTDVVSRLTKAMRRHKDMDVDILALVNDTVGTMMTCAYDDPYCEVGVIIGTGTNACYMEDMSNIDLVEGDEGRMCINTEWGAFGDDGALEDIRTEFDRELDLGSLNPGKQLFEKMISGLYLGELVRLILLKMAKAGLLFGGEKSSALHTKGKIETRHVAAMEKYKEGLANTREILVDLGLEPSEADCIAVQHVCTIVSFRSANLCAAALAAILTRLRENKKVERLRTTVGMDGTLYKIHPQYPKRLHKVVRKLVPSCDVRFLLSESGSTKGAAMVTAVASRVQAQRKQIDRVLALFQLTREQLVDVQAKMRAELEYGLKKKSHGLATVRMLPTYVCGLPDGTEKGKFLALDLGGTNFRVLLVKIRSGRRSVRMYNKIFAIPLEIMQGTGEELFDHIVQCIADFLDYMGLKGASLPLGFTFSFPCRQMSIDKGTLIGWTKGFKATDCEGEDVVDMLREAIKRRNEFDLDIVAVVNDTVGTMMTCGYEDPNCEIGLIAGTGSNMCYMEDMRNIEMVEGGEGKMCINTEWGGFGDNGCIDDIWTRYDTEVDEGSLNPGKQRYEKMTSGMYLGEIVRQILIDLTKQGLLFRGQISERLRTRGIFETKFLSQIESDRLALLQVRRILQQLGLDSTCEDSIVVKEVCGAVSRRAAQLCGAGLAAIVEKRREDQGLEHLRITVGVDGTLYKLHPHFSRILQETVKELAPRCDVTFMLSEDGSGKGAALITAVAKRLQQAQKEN

[1] = luciferase reporter signal suppression in cells – H4 neuroglioma cells, luminescence, dose response (AID 1990); type: functional, cell-based
[2] = Luminescence Cell-Based Dose Response HTS to Identify Inhibitors of 5'UTR Stem-Loop Driven Prion Protein mRNA Translation in H4 Neuroglioblastoma Cells. [Related pubchem assays: 1827 (Project Summary), 1813 (Primary HTS)]; type: functional
[3] = alpha-synuclein stem-loop luciferase translation blockers – H4 neuroglioma cells, luminescence, confirmation (AID 1988); type: functional, cell-based
[4] = viability of PTEN-deleted HCT116 cells – cell-based, HCT116 PTEN knockout, dose response (AID 1047); type: functional;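 further: HCT116 colon tumor cells with PTEN knocked out; cells exposed to compound for 60 hours before readout; potency for loss of cell viability measured by luminescence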
[5] = viability of HCT116 lacking mutant beta-catenin – cell-based, human colon tumor, dose response (AID 1045); type: functional;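 further: HCT116 colon tumor cells with beta catenin knocked out; cells exposed to compound for 60 hours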
[6] = biological target: T2, Ubiquitin-conjugating enzyme E2 N (Homo sapiens, UniProt P61088); type: functional;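 further: Dose-response confirmation in a TR-FRET assay detecting UBC13-driven polyubiquitin chain formation, inhibition measured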
T2 sequence (P61088 whole entry): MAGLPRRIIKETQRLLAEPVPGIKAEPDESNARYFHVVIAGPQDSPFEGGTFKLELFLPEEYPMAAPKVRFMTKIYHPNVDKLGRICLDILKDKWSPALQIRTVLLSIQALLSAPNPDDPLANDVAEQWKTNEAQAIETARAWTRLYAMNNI

Cytochrome P450 2C19 = Cytochrome P450 2C19 (Homo sapiens, UniProt P33261); experiment: Cytochrome panel assay with activity outcomes. Panel member name: p450-cyp2c19 Compounds with AC50 equal or less than 10 uM are considered active; type: functional; details: read-out: AC50
INS1 = experiment: INS-1E survival protection against cytokine death – cell-based, luminescence, retest, dose response (AID 449756); type: functional; details: Rattus norvegicus;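 further: cell death triggered by IL-1 beta plus TNF-alpha plus IFN-gamma mixture; protective hits raise ATP signal compared with cytokine alone wells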
[7] = biological target: Beta-2 adrenergic receptor (Homo sapiens, UniProt P07550); experiment: ADRB2 activation measured by internalization – cell-based, FAP fluorogen, flow cytometry, cherry pick 1, dose response (AID 588763); type: functional
[8] = reduction of Shn3 3'UTR-driven luciferase in osteoblasts – cell-based, Clone20 osteoblasts, firefly luciferase, cherry-picked, dose response (AID 624132); type: functional;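 further: firefly luciferase luminescence from reporter carrying the Shn3 3'UTR in osteoblasts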
[9] = loss of viability in HepG2 cells – cell-based, CellTiter-Glo, cherry-picked, cytotoxicity control for Shn3 inhibitor project, dose response (AID 624134); type: functional
[10] = non-specific 3'UTR reporter inhibition in Clone20-Shn3RL – cell-based, Renilla luciferase, cherry-picked, counter-screen for Shn3 inhibitor project, dose response (AID 624133); type: functional
Cytochrome P450 2C9 = Cytochrome P450 2C9 (Homo sapiens, UniProt P11712)
[11] = biological target: T3, Short transient receptor potential channel 4 (Mus musculus, UniProt Q9QUQ5); experiment: SAR Analysis for the identification of selective inhibits of the transient receptor potential cation channel C4 (TRPC4): Automated Electrophysiology_2. [Related pubchem assays (depositor defined):AID2256]; type: functional
T3 sequence (Q9QUQ5 whole entry): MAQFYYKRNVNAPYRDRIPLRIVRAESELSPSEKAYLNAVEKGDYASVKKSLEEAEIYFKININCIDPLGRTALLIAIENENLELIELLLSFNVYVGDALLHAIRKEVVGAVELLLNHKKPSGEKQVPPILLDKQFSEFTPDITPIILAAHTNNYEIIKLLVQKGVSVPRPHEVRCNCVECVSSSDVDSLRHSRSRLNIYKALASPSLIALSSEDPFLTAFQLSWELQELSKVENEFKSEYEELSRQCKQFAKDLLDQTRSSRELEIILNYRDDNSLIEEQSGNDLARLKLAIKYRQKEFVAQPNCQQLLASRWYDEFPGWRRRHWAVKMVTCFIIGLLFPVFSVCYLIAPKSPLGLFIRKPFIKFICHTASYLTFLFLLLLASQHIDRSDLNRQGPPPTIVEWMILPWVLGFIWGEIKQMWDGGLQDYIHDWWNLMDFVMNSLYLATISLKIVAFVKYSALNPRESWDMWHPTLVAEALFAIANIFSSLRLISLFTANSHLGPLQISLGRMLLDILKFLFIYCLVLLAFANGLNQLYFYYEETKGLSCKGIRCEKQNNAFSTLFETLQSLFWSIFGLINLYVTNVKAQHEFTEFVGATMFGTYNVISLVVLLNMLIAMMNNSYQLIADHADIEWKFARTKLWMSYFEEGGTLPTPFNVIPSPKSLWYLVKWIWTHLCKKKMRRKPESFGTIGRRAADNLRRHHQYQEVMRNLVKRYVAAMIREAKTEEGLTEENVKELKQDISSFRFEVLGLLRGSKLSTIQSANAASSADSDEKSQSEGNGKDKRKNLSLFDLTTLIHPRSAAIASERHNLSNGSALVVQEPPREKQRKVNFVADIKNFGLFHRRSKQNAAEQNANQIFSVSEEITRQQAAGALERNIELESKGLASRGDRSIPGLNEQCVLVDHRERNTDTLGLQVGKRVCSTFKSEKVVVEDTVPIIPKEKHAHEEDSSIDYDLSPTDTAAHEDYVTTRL

[12] = biological target: T3, Short transient receptor potential channel 4; experiment: mouse TRPC4 block via Gq-coupled stimulation – cell-based, acetylcholine stimulus, HEK293 TRPC4, Fluo-4, SAR follow-up (AID 492996); type: functional
[13] = biological target: Short transient receptor potential channel 6 (Mus musculus, UniProt Q61143); experiment: mouse TRPC6 channel blockers, concentration series – HEK293 cells, membrane potential dye, IC50, selectivity assay for selective TRPC4 inhibitor project, dose response (AID 492987); type: functional, cell-based
[14] = biological target: T3, Short transient receptor potential channel 4; experiment: potency of mouse TRPC4 calcium flux blockers – cell-based, HEK293 TRPC4/mu-opioid, DAMGO stimulus, Fluo-4, dose response (AID 492994); type: functional
[15] = viability of uninfected HEp-2 cells – cell-based, HTS, cytotoxicity control for RSV inhibitor project, dose response (AID 2410); type: functional; details: human respiratory syncytial virus
[16] = system: Streptococcus sp. 'group A'; experiment: Streptococcus pyogenes SK(-)GAS viability under kanamycin – luminescence, BacTiterGlo, confirmation, counter-screen for streptokinase expression inhibitor project, dose response (AID 1900); type: functional, organism-based
[17] = A Cell Based Secondary Assay To Explore Cytotoxicity of Compounds that Sensitize Mycobacterium Tuberculosis to Beta-Lactam Antibiotics.; type: functional
Streptokinase A = biological target: T4, Streptokinase A (Streptococcus pyogenes serotype M1, UniProt P10520); experiment: viability-normalized secreted streptokinase activity reduction – plasminogen activation absorbance, OD405, dose response (AID 1914); type: functional, Streptococcus pyogenes M1 GAS;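 further: secreted streptokinase activity via plasminogen activation per viability signal from cell pellet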
T4 sequence (P10520 whole entry): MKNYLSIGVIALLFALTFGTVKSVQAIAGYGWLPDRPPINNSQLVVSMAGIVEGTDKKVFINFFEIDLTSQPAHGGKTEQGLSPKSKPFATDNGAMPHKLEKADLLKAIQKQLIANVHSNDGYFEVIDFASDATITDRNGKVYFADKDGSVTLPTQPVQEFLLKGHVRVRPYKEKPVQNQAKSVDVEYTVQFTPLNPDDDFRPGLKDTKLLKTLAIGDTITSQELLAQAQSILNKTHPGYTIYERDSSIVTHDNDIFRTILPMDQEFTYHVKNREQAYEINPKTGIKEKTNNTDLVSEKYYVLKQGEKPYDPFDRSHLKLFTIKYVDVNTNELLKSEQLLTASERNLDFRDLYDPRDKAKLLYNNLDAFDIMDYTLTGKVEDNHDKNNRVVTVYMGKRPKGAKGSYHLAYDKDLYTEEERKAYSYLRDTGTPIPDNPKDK

Streptococcus = experiment: GAS UMAA2166 growth inhibition – luminescence, BacTiterGlo, counter-screen for streptokinase expression inhibitor project, dose response (AID 1915); type: functional, organism-based;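 further: potency for reduction of bacterial viability or growth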
HEK293 [18] = experiment: HEK293T cell viability loss, resazurin readout – resazurin fluorescence, cytotoxicity control for NF-kB activator project, SAR follow-up (AID 493251); type: functional, cell-based; details: Homo sapiens
Jurkat = experiment: SAR Analysis of small molecule inhibitors of T-cell specific antigen receptor-induced NF-kB activation in a Jurkat cell line using a luminescence assay - Set 2. [Related pubchem assays (depositor defined):AID435003, AID435012, AID465]; type: functional, cell-based; details: Homo sapiens
HEK293 [19] = experiment: SAR Analysis of small molecule inhibitors of T-cell specific antigen receptor-induced NF-kB activation in a HEK-293T cell line using a luminescence assay - Set 2. [Related pubchem assays (depositor defined):AID435003, AID435012, AID489026]; type: functional, cell-based; details: Homo sapiens

Sequence of Cytochrome P450 2C9 (P11712 whole entry): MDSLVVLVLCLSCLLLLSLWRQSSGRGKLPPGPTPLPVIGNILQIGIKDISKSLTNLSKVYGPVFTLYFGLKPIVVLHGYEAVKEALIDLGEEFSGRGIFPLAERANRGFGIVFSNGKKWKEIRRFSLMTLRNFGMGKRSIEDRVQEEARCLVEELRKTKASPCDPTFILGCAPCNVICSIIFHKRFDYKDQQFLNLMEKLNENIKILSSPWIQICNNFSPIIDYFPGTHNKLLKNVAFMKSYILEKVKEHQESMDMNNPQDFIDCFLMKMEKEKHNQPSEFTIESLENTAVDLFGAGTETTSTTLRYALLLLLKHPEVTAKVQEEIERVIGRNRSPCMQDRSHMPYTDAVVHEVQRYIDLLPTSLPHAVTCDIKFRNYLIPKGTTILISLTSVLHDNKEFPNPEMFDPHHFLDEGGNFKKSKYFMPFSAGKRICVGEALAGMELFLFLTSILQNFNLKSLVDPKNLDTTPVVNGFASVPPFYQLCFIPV
Sequence of Beta-2 adrenergic receptor (P07550 whole entry): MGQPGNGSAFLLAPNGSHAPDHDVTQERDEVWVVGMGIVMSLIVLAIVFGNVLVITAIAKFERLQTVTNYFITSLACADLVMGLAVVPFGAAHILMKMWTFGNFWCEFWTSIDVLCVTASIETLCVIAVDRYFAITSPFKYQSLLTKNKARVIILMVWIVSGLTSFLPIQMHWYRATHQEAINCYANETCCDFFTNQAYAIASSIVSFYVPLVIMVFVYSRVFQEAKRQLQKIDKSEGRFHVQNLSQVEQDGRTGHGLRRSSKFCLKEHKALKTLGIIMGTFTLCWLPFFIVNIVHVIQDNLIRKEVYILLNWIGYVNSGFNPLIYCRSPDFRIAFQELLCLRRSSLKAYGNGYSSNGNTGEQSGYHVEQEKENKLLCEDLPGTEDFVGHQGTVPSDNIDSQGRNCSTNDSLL
Sequence of Hexokinase-1 (P19367 whole entry, the tested form may be a part): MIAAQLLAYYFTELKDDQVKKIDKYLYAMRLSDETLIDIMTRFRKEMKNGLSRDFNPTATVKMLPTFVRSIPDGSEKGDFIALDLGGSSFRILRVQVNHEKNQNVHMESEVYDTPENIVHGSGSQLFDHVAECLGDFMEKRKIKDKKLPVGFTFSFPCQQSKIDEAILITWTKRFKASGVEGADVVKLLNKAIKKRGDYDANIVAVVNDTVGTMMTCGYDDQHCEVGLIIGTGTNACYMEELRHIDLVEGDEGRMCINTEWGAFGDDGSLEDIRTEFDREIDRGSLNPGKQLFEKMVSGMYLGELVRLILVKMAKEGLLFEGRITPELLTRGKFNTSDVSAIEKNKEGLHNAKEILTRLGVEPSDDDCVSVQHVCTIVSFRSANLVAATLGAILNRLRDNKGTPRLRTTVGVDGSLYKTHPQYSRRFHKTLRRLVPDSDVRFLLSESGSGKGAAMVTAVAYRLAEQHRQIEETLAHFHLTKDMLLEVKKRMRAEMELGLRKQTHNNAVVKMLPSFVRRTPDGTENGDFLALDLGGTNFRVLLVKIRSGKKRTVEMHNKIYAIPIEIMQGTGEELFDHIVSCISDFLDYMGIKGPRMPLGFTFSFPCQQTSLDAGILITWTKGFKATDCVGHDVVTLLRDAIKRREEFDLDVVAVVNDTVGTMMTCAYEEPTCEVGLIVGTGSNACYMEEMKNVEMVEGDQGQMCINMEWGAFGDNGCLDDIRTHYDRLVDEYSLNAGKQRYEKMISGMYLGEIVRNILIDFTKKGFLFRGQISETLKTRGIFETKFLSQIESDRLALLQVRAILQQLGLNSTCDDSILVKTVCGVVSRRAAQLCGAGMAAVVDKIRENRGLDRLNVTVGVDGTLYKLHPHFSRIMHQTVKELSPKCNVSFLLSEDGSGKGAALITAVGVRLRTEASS
Sequence of Cytochrome P450 2C19 (P33261 whole entry): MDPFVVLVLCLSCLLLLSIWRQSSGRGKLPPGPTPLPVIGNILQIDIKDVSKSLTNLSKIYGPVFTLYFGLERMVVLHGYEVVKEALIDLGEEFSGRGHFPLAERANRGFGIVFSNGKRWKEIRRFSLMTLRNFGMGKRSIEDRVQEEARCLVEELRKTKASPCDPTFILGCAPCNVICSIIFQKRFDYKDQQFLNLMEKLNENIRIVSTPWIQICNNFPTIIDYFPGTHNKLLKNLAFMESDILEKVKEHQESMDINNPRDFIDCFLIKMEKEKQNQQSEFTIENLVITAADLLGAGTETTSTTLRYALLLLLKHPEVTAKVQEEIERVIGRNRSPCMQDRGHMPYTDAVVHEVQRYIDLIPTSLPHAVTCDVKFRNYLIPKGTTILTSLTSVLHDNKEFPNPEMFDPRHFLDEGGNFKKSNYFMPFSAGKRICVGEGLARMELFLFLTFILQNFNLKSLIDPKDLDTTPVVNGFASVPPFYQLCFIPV
Sequence of Short transient receptor potential channel 6 (Q61143 whole entry): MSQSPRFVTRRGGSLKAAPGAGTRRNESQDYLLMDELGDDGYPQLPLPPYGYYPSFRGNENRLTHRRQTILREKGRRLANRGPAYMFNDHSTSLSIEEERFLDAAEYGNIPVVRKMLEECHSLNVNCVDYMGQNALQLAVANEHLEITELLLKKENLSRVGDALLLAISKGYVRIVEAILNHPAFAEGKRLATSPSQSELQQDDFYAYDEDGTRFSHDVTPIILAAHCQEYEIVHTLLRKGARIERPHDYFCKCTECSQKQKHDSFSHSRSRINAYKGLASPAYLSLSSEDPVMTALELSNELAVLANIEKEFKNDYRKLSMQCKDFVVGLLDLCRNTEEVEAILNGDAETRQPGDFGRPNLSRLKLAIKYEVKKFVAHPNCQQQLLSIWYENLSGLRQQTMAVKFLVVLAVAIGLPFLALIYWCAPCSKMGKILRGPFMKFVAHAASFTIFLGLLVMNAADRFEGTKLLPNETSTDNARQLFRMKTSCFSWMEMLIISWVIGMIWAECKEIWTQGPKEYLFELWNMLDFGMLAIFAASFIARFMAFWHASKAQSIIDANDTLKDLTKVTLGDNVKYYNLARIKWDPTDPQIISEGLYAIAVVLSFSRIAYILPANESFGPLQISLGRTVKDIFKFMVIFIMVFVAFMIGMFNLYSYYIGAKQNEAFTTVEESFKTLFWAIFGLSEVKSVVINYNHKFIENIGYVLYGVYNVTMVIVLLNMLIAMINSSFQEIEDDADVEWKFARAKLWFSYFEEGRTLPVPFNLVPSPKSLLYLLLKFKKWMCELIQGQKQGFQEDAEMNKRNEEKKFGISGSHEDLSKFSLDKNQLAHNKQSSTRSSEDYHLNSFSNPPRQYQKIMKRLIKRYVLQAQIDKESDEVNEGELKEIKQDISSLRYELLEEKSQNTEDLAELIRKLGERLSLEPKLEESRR

**Q.** Which IC50 (Hexokinase-1) does the source give for Cc1ccc(S(=O)(=O)Nc2cc(SCC(=O)O)c(O)c3ccccc23)cc1[N+](=O)[O-] here?
**A.** 59.8 µM (inactive)

**Q.** What about the IC50 (Hexokinase HKDC1) of the same molecule?
**A.** 11.4 µM (active)

**Q.** Which results are given for CCOc1cc(CNCCc2ccc(S(N)(=O)=O)cc2)ccc1OCc1ccc(Cl)cc1?
**A.** EC50 [1]: 9.07 µM (active); EC50 [2]: > 120 µM (not active); EC50 [3]: 59.1 µM (active); EC50 [4]: 8.2 µM (active); EC50 [5]: 3.56 µM (active); IC50 [6]: > 20 µM (inactive); AC50 (Cytochrome P450 2C19): 17.8 µM (inconclusive); AC50 (INS1): 4.78 µM (active); EC50 [7]: 16.1 µM (inactive); AC50 [8]: 3.87 µM (active); AC50 [9]: 9.14 µM (active); AC50 [10]: 4.75 µM (active); AC50 (Cytochrome P450 2C9): 11.2 µM (inconclusive)

**Q.** Which IC50 [11] does the source give for Cc1cc(N2CCCCCC2)nc2ccccc12 here?
**A.** 1.96 µM (active)

**Q.** What about the IC50 [12] of the same molecule?
**A.** 9.55 µM (active)

**Q.** And the IC50 [13]?
**A.** 9.74 µM (active)

**Q.** And the IC50 [14]?
**A.** 1.5 µM (active)

**Q.** For Cc1cc(NC(=O)c2ccc3c(c2)OCCO3)ccc1NC(=O)c1cc2ccccc2o1, which CC50 [15] is on record?
**A.** 18.2 µM (active)

**Q.** And the EC50 [16]?
**A.** 14 µM (active)

**Q.** And the CC50 [17]?
**A.** > 40 µM (active)

**Q.** And the EC50 (Streptokinase A)?
**A.** > 150 µM (not active)

**Q.** What about the EC50 (Streptococcus) of the same molecule?
**A.** 14.9 µM (active)

**Q.** And the IC50 (HEK293 [18])?
**A.** 8.04 µM (active)

**Q.** What about the IC50 (Jurkat) of the same molecule?
**A.** 38.6 µM (inactive)

**Q.** What about the IC50 (HEK293 [19]) of the same molecule?
**A.** 8.84 µM (active)

**Q.** What about the IC50 (cells) of the same molecule?
**A.** 7.55 µM (active)
